The values below come from patent US8796328B2, “TRPV1 antagonists” (AbbVie Inc., priority 2012, dated 2014).

For assay [1], the target named is T1, human TRPV1 receptor (hTRPV1) (Homo sapiens (Human), UniProt Q8NER1). As to the kind of experiment: Acid activation assay (pH 5.0, FLIPR intracellular Ca2+). It counts as cell-based. The following applies: 37.5 μM compound, percentage of the maximal pH 5.0-induced response remaining; for remaining activity at 37.5 µM: read-out: hTRPV1 H+ (max % remain). How it is done:
Dulbecco's modified Eagle's medium (DMEM) with 4.5 mg/mL D-glucose, fetal bovine serum, L-glutamine, and 2-morpholinoethanesulfonic acid (MES) were purchased from Sigma-Aldrich Co. (St. Louis, Mo.). Dulbecco's phosphate-buffered saline (DPBS) with Ca^2+, Mg^2+, and 1 mg/mL D-glucose (pH 7.4), Geneticin®, 0.25% trypsin-1 mM EDTA, and penicillin-streptomycin were purchased from Invitrogen Corp. (Carlsbad, Calif.). The FLIPR® Calcium 4 assay kit was purchased from Molecular Devices (Sunnyvale, Calif.).
(§1) The cDNAs for the human TRPV1 receptor (hTRPV1) were isolated by reverse transcriptase-polymerase chain reaction (RT-PCR) from human small intestine poly A+ RNA supplied by Clontech (Palo Alto, Calif.) using primers designed surrounding the initiation and termination codons identical to the published sequences (Hayes et al. Pain 2000, 88, 205-215). The resulting cDNA PCR products were subcloned into pCIneo mammalian expression vector (Promega) and fully sequenced using fluorescent dye-terminator reagents (Prism, Perkin-Elmer Applied Biosystems Division) and a Perkin-Elmer Applied Biosystems Model 373 DNA sequencer or Model 310 genetic analyzer. Expression plasmids encoding the hTRPV1 cDNA were transfected individually into 1321N1 human astrocytoma cells using Lipofectamine®. Forty-eight hours after transfection, the neomycin-resistant cells were selected with growth medium containing 800 μg/mL Geneticin (Gibco BRL). Surviving individual colonies were isolated and screened for TRPV1 receptor activity. Cells expressing recombinant homomeric TRPV1 receptors were maintained at 37° C. in DMEM containing 4 mM L-glutamine, 300 μg/mL G418 (Cal-biochem) and 10% fetal bovine serum under a humidified 5% CO2 atmosphere.
The functional activity of compounds at the TRPV1 receptor was determined by measurement of intracellular Ca^2+ levels ([Ca^2+]i) using the Fluorescence Imaging Plate Reader (FLIPR)^TETRA®. All compounds were tested over a 12-point one-half-log concentration range. Compound stocks, 10 mM, were prepared in DMSO, and diluted serially across a 384-well plate using a Bravo BenchCel workstation (Agilent Technologies, Santa Clara, Calif.).
On the day of the experiment growth medium was removed, and the no-wash FLIPR®Calcium-4 dye (λEX=470-495 nm, λEM=515-575 nm) was added to each well using the Multidrop® dispenser. Cells were incubated for 90-120 minutes in the dark at 25° C. Test compounds were dissolved in DMSO, and plates were prepared using an Agilent Bravo workstation (Agilent Technologies Inc., Santa Clara, Calif.). Compounds were added to the cells 3 minutes prior to the addition of a pH 5.0 solution. Reagents were delivered at a rate of 40 μL/sec, and the final assay volume was 80 μL. Acidic pH solutions were prepared by titration of DPBS/MES with 1 N HCl. The intensity of the fluorescence was captured and digitally transferred to an interfaced PC.

Assay [2] deals with T1, human TRPV1 receptor (hTRPV1). Nature of the assay: Capsaicin activation assay (FLIPR intracellular Ca2+). It counts as cell-based. The following applies: inhibition of capsaicin-induced intracellular Ca2+ increase; compounds added 3 minutes prior to capsaicin; read-out: hTRPV1 cap. IC50. How it is done: Dulbecco's modified Eagle medium (D-MEM) (with 4.5 mg/mL glucose) and fetal bovine serum were obtained from Hyclone Laboratories, Inc. (Logan, Utah). Dulbecco's phosphate-buffered saline (D-PBS) (with 1 mg/mL glucose and 3.6 mg/l Na pyruvate, without phenol red), L-glutamine, hygromycin B, and Lipofectamine® were obtained from Life Technologies (Grand Island, N.Y.). G418 sulfate was obtained from Calbiochem-Novabiochem Corp. (San Diego, Calif.). Capsaicin (8-methyl-N-vanillyl-6-nonenamide) was obtained from Sigma-Aldrich, Co. (St. Louis, Mo.). Fluo-4 AM (N-[4-[6-[(acetyloxy)methoxy]-2,7-difluoro-3-oxo-3H-xanthen-9-yl]-2-[2-[2-[bis[2-[(acetyloxy)methoxy]-2-oxyethyl]amino]-5-methylphenoxy]ethoxy]phenyl]-N-[2-[(acetyloxy)methoxy]-2-oxyethyl]-glycine, (acetyloxy)methyl ester) was purchased from Molecular Probes (Eugene, Oreg.).
as §1, with “D-MEM” for “DMEM”
The functional activity of compounds at the TRPV1 receptor was determined by measurement of intracellular Ca^2+ levels ([Ca^2]i) using the Fluorescence Imaging Plate Reader (FLIPR)^TETRA®. All compounds were tested over a 12-point one-third-log concentration range. Compound stocks, 10 mM, were prepared in DMSO, and diluted serially across a 384-well plate using a Bravo BenchCel workstation (Agilent Technologies, Santa Clara, Calif.). A stock concentration of capsaicin (10 mM) was made in DMSO, and diluted in D-PBS to a final concentration of 200 nM (4×). On the day prior to the experiment, recombinant HEK293 cells that stably express either human or rat TRPV1 (hTRPV1-3) were removed from tissue culture flasks and plated in growth medium into black-walled clear-bottom 384-well Biocoat™ poly-D-lysine assay plates (BD Biosciences, Bedford, Mass.) using a Multidrop® dispenser (ThermoScientific, Waltham, Mass.). On the day of the experiment, growth medium was removed, and the no-wash FLIPR® Calcium-4 dye (λEX=470-495 nm, λEM=515-575 nm; Molecular Devices, Sunnyvale, Calif.) was added to each well using the Multidrop® dispenser. Cells were incubated for 90-120 minutes in the dark at room temperature. Test compounds were added to the cells 3 minutes prior to the addition of 200 nM capsaicin (4×), and the final assay volume was 80 μL. Fluorescence readings were made at 1 to 5 second intervals over the course of the experimental run. The peak increase in relative fluorescence units (minus baseline) was calculated, and expressed as a percentage of the 50 nM capsaicin (control) response. Curve-fits of the data were solved using a four-parameter logistic Hill equation in GraphPad Prism® (GraphPad Software, Inc., San Diego, Calif.), and IC50 values (concentration of the test compounds that inhibits 50% of the intracellular Ca^2+ concentration increase induced by capasin) were calculated.

For orientation: IC50 means the concentration that gives 50% inhibition.

T1 sequence (Q8NER1 whole entry): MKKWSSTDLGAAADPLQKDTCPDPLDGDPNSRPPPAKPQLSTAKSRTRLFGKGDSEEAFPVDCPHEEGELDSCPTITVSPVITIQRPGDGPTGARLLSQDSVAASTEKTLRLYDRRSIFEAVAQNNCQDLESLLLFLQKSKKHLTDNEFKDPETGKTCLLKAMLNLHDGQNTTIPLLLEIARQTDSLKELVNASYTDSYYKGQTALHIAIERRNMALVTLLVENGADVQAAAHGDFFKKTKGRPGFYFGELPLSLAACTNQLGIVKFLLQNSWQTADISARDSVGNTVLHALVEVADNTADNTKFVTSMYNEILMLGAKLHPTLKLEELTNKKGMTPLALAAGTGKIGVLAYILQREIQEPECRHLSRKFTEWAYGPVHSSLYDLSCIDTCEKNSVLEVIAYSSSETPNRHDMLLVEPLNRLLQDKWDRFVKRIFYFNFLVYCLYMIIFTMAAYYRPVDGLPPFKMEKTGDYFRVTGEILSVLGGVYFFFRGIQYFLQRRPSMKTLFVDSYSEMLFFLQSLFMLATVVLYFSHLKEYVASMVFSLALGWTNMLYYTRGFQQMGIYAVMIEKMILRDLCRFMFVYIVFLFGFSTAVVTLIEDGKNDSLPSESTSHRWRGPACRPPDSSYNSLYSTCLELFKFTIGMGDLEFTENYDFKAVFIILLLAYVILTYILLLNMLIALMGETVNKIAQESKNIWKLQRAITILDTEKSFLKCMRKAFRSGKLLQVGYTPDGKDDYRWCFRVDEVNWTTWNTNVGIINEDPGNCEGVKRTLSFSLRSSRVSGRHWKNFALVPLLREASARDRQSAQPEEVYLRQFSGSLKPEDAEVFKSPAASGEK

`CC1(C)C[C@@H](NC(=O)NCc2ccc(NS(C)(=O)=O)c(F)c2)c2ccccc2O1` [Example 21, N-{4-[({[(4R)-2,2-dimethyl-3,4-dihydro-2H-chromen-4-yl]carbamoyl}amino)methyl]-2-fluorophenyl}methanesulfonamide]: in assay [1], the remaining activity at 37.5 µM amounted to 74%. The IC50 in assay [2] was found to be 7560 nM.
Turning to `CCC1(CC)C[C@@H](NC(=O)NCc2ccc(NS(C)(=O)=O)c(F)c2)c2ccc(Cl)c(Cl)c2O1` [Example 8, N-{4-[({[(4R)-7,8-dichloro-2,2-diethyl-3,4-dihydro-2H-chromen-4-yl]carbamoyl}amino)methyl]-2-fluorophenyl}methanesulfonamide], the remaining activity at 37.5 µM in assay [1] was 24%. Besides, in assay [2], the IC50 was 330 nM.
Taken in the same sequence, the figures for `C[C@@]1(C(F)(F)F)C[C@@H](NC(=O)NCc2ccc(NS(C)(=O)=O)c(F)c2)c2ccccc2O1` [Example 35, N-{2-fluoro-4-[({[(2S,4R)-2-methyl-2-(trifluoromethyl)-3,4-dihydro-2H-chromen-4-yl]carbamoyl}amino)methyl]phenyl}methanesulfonamide] were 25% and 2440 nM.
Taken in the same sequence, the figures for `CS(=O)(=O)Nc1ccc(CNC(=O)N[C@@H]2CC(CF)(CF)Oc3c2ccc(Cl)c3F)cc1F` [Example 20, N-{4-[({[(4R)-7-chloro-8-fluoro-2,2-bis(fluoromethyl)-3,4-dihydro-2H-chromen-4-yl]carbamoyl}amino)methyl]-2-fluorophenyl}methanesulfonamide] were 60% and 791 nM.
Taken in the same sequence, the figures for `CC1(C)C[C@@H](NC(=O)NCc2ccc(NS(C)(=O)=O)c(F)c2)c2ccc(F)c(Cl)c2O1` [Example 23, N-{4-[({[(4R)-8-chloro-7-fluoro-2,2-dimethyl-3,4-dihydro-2H-chromen-4-yl]carbamoyl}amino)methyl]-2-fluorophenyl}methanesulfonamide] were 24% and 358 nM.
Take `CC1(C)C[C@H](NC(=O)NCc2ccc(NS(C)(=O)=O)c(F)c2)c2cc(F)ccc2O1` [Example 34, N-{2-fluoro-4-[({[(45)-6-fluoro-2,2-dimethyl-3,4-dihydro-2H-chromen-4-yl]carbamoyl}amino)methyl]phenyl}methanesulfonamide]: the “hTRPV1 H+ (max % remain)” value in assay [1] was 86%. Moreover, the IC50 in assay [2] worked out at 28700 nM.
Consider `CC1(C)C[C@@H](NC(=O)NCc2ccc(NS(C)(=O)=O)c(F)c2)c2ccc(C(F)(F)F)cc2O1` [Example 9, N-{4-[({[(4R)-2,2-dimethyl-7-(trifluoromethyl)-3,4-dihydro-2H-chromen-4-yl]carbamoyl}amino)methyl]-2-fluorophenyl}methanesulfonamide], for which the remaining activity at 37.5 µM in assay [1] was 70%. Moreover, in assay [2], the IC50 came to 109 nM.
For `C[C@@]1(C(F)F)C[C@@H](NC(=O)NCc2ccc(NS(C)(=O)=O)c(F)c2)c2ccccc2O1` [Example 40, N-{4-[({[(2S,4R)-2-(difluoromethyl)-2-methyl-3,4-dihydro-2H-chromen-4-yl]carbamoyl}amino)methyl]-2-fluorophenyl}methanesulfonamide], the remaining activity at 37.5 µM in assay [1] is 64%. Moreover, the IC50 in assay [2] was determined as 10100 nM.
For the compound `CS(=O)(=O)Nc1ccc(CNC(=O)N[C@@H]2CC(CF)(CF)Oc3ccccc32)cc1F` [Example 27, N-{4-[({[(4R)-2,2-bis(fluoromethyl)-3,4-dihydro-2H-chromen-4-yl]carbamoyl}amino)methyl]-2-fluorophenyl}methanesulfonamide], the remaining activity at 37.5 µM in assay [1] was determined as 59%. The half-maximal inhibitory concentration (IC50) in assay [2] worked out at 22500 nM.
On to `CS(=O)(=O)Nc1ccc(CNC(=O)N[C@@H]2CC(CF)(CF)Oc3cc(F)ccc32)cc1F` [Example 43, N-{2-fluoro-4-[({[(4R)-7-fluoro-2,2-bis(fluoromethyl)-3,4-dihydro-2H-chromen-4-yl]carbamoyl}amino)methyl]phenyl}methanesulfonamide], for which the remaining activity at 37.5 µM in assay [1] was 43%. Also, the IC50 in assay [2] was determined as 6410 nM.
For the compound `CS(=O)(=O)Nc1ccc(CNC(=O)N[C@H]2CC3(CCC3)Oc3ccc(F)cc32)cc1F` [Example 33, N-{2-fluoro-4-[({[(45)-6-fluoro-3,4-dihydrospiro[chromene-2,1′-cyclobutan]-4-yl]carbamoyl}amino)methyl]phenyl}methanesulfonamide], the “hTRPV1 H+ (max % remain)” value in assay [1] is recorded as 101%. Further, in assay [2], the IC50 worked out at 23100 nM.
As to `CS(=O)(=O)Nc1ccc(CNC(=O)NC2CC3(CCCC3)Oc3ccccc32)cc1F` (stereo not shown) [Example 44, N-(4-{[(3,4-dihydrospiro[chromene-2,1′-cyclopentan]-4-ylcarbamoyl)amino]methyl}-2-fluorophenyl)methanesulfonamide], the remaining activity at 37.5 µM in assay [1] worked out at 42%. In addition, the concentration for half-maximal inhibition (IC50) in assay [2] came to 1280 nM.
For the compound `CS(=O)(=O)Nc1ccc(CNC(=O)N[C@@H]2CCOc3ccc(F)cc32)cc1F` [Example 30, N-{2-fluoro-4-[({[(4R)-6-fluoro-3,4-dihydro-2H-chromen-4-yl]carbamoyl}amino)methyl]phenyl}methanesulfonamide], in assay [1], the remaining activity at 37.5 µM amounted to 84%. Further, the half-inhibitory concentration (IC50) in assay [2] was more than 37500 nM.
Taken in the same sequence, the figures for `CS(=O)(=O)Nc1ccc(CNC(=O)N[C@@H]2CCOc3cc(C(F)(F)F)ccc32)cc1F` [Example 32, N-{2-fluoro-4-[({[(4R)-7-(trifluoromethyl)-3,4-dihydro-2H-chromen-4-yl]carbamoyl}amino)methyl]phenyl}methanesulfonamide] were 88% and 913 nM.
